Data published in paper PMC10866072, “Design, synthesis, molecular modelling and biological evaluation of novel 6-amino-5-cyano-2-thiopyrimidine derivatives as potent anticancer agents against leukemia and apoptotic inducers” (Journal of Enzyme Inhibition and Medicinal Chemistry, 2024).

How the values were obtained:
[1] = test system: UACC-62; type: cell-based; settings: Homo sapiens, one dose 10^-5 M, 48 h
[2] = test system: NCI-H226; type: cell-based; settings: Homo sapiens, one dose 10^-5 M, 48 h
[3] = test system: MALME-3M; type: cell-based; settings: Homo sapiens, one dose 10^-5 M, 48 h
[4] = test system: SK-MEL-2; type: cell-based; settings: Homo sapiens, one dose 10^-5 M, 48 h
[5] = test system: PC-3; type: cell-based; settings: Homo sapiens, one dose 10^-5 M, 48 h
[6] = test system: HS 578T; type: cell-based; settings: Homo sapiens; one dose 10^-5 M, 48 h; HS 578T; read-out: % growth
[7] = test system: HL-60(TB); type: cell-based; settings: Homo sapiens, one dose 10^-5 M, 48 h
[8] = test system: SF-268; type: cell-based; settings: Homo sapiens, one dose 10^-5 M, 48 h, read-out: % growth
[9] = test system: HCT-116; type: cell-based; settings: Homo sapiens, one dose 10^-5 M, 48 h, read-out: % growth
[10] = test system: HT29; type: cell-based; settings: Homo sapiens, HT-29, one dose 10^-5 M, 48 h
[11] = test system: U251; type: cell-based; settings: Homo sapiens, U-251, one dose 10^-5 M, 48 h
[12] = test system: UO-31; type: cell-based; settings: Homo sapiens, UO-31, 48 h, one dose 10^-5 M, 48 h
[13] = test system: MCF7; type: cell-based; settings: Homo sapiens, one dose 10^-5 M, 48 h, read-out: % growth
[14] = test system: CAKI-1; type: cell-based; settings: Homo sapiens, CAKI-1, 48 h, one dose 10^-5 M, 48 h
[15] = test system: NCI-H23; type: cell-based; settings: Homo sapiens, one dose 10^-5 M, 48 h, read-out: % growth
[16] = test system: M14; type: cell-based; settings: Homo sapiens, one dose 10^-5 M, 48 h
[17] = test system: MDA-MB-468; type: cell-based; settings: Homo sapiens, one dose 10^-5 M, 48 h
[18] = test system: RXF 393; type: cell-based; settings: Homo sapiens, RXF 393, 48 h, one dose 10^-5 M, 48 h, read-out: % growth
[19] = test system: OVCAR-3; type: cell-based; settings: Homo sapiens, one dose 10^-5 M, 48 h
[20] = test system: MDA-MB-231/ATCC; type: cell-based; settings: Homo sapiens, one dose 10^-5 M, 48 h
[21] = test system: KM12; type: cell-based; settings: Homo sapiens, one dose 10^-5 M, 48 h
[22] = test system: NCI-H522; type: cell-based; settings: Homo sapiens, one dose 10^-5 M, 48 h
[23] = test system: SF-539; type: cell-based; settings: Homo sapiens, one dose 10^-5 M, 48 h
[24] = test system: HOP-62; type: cell-based; settings: Homo sapiens, one dose 10^-5 M, 48 h
[25] = test system: 786-0; type: cell-based; settings: Homo sapiens, one dose 10^-5 M, 48 h
[26] = test system: IGROV1; type: cell-based; settings: Homo sapiens, IGROV-1, one dose 10^-5 M, 48 h, read-out: % growth
[27] = test system: MOLT-4; type: cell-based; settings: Homo sapiens, one dose 10^-5 M, 48 h, read-out: % growth
[28] = test system: DU-145; type: cell-based; settings: Homo sapiens, one dose 10^-5 M, 48 h
[29] = test system: EKVX; type: cell-based; settings: Homo sapiens, one dose 10^-5 M, 48 h
[30] = test system: ACHN; type: cell-based; settings: Homo sapiens, one dose 10^-5 M, 48 h
[31] = test system: HOP-92; type: cell-based; settings: Homo sapiens, one dose 10^-5 M, 48 h
[32] = test system: SW-620; type: cell-based; settings: Homo sapiens, one dose 10^-5 M, 48 h
[33] = test system: SNB-75; type: cell-based; settings: Homo sapiens, one dose 10^-5 M, 48 h
[34] = test system: A498; type: cell-based; settings: Homo sapiens, one dose 10^-5 M, 48 h
[35] = test system: T-47D; type: cell-based; settings: Homo sapiens, T47D, one dose 10^-5 M, 48 h, read-out: % growth
[36] = test system: MDA-MB-435; type: cell-based; settings: Homo sapiens, one dose 10^-5 M, 48 h, read-out: % growth
[37] = test system: HCT-15; type: cell-based; settings: Homo sapiens, one dose 10^-5 M, 48 h, read-out: % growth
[38] = test system: K-562; type: cell-based; settings: Homo sapiens, K562, one dose 10^-5 M, 48 h
[39] = test system: OVCAR-4; type: cell-based; settings: Homo sapiens, one dose 10^-5 M, 48 h
[40] = test system: UACC-257; type: cell-based; settings: Homo sapiens, one dose 10^-5 M, 48 h
[41] = test system: SK-MEL-28; type: cell-based; settings: Homo sapiens, one dose 10^-5 M, 48 h
[42] = test system: CCRF-CEM; type: cell-based; settings: Homo sapiens, one dose 10^-5 M, 48 h
[43] = test system: HCC-2998; type: cell-based; settings: Homo sapiens, one dose 10^-5 M, 48 h
[44] = test system: RPMI-8226; type: cell-based; settings: Homo sapiens, one dose 10^-5 M, 48 h
[45] = test system: SNB-19; type: cell-based; settings: Homo sapiens, one dose 10^-5 M, 48 h, read-out: % growth
[46] = test system: A549/ATCC; type: cell-based; settings: Homo sapiens, one dose 10^-5 M, 48 h
[47] = test system: SK-MEL-5; type: cell-based; settings: Homo sapiens, one dose 10^-5 M, 48 h, read-out: % growth
[48] = test system: OVCAR-8; type: cell-based; settings: Homo sapiens, one dose 10^-5 M, 48 h
[49] = test system: SN12C; type: cell-based, human; settings: Homo sapiens, one dose 10^-5 M, 48 h
[50] = test system: OVCAR-5; type: cell-based; settings: Homo sapiens, one dose 10^-5 M, 48 h
[51] = test system: NCI-H460; type: cell-based; settings: Homo sapiens, one dose 10^-5 M, 48 h, read-out: % growth
[52] = test system: SF-295; type: cell-based; settings: Homo sapiens, one dose 10^-5 M, 48 h
[53] = test system: full NCI 60 cell lines panel
Procedure: 60 different human tumour cell lines-representing leukaemia, melanoma, and malignancies of the lung, colon, brain, ovary, breast, prostate, and kidney are used in the operation of this screen.
Compounds were dissolved in DMSO: glycerol (91) and were kept in a freezer at −70° C. The synthesised compounds were introduced to the culture at a single concentration of 1 0 ^−5 M and left to incubate for 48 h. A protein-binding dye called sulforhodamine B was used to measure end points (SRB).
A mean graph showing the % growth of treated cells is used to represent the one-dose data. The value provided for the One-dose assay represents growth in comparison to the no-drug control and to the number of cells at time zero. This enables the identification of lethality (values between 0 and 100) as well as growth inhibition (values less than 0). A value of 100, for instance, indicates no growth inhibition. A value of 40 would indicate 60% growth inhibition. A value of 0 indicates no net growth over the course of the experiment. A value of −40 would indicate 40% lethality.
Furthermore, the average sensitivity of all cell lines to the compound is termed as the full panel mean graph midpoints (MG-MID). The complete panel mean graph midpoints refers to the average sensitivity of all cell lines to the chemical (MG-MID). A measure of a compound’s selectivity for a given cell line is the ratio created by dividing the full panel mean graph midpoints (MG-MID) concentration by the individual subpanel MG-MID concentrations (obtained as the average sensitivity of all the cell lines in a given subpanel to the test compound).

[54] = test system: LOX IMVI; type: cell-based; settings: Homo sapiens, one dose 10^-5 M, 48 h, read-out: % growth
[55] = test system: SR; type: cell-based; settings: Homo sapiens, one dose 10^-5 M, 48 h
[56] = test system: SK-OV-3; type: cell-based; settings: Homo sapiens, one dose 10^-5 M, 48 h
[57] = test system: TK-10; type: cell-based; settings: Homo sapiens, one dose 10^-5 M, 48 h

N=C(NN=Cc1ccc([N+](=O)[O-])cc1)c1c(N)nc(S)nc1-c1ccc(Cl)cc1 [Compound 4i, 4-amino-6–(4-chlorophenyl)-2-mercapto-N'-[(4-nitrophenyl)methylene] pyrimidine-5-carboximidohydrazide]
% growth at 10 µM [1]: 94.6%
% growth at 10 µM [2]: 150%
% growth at 10 µM [3]: 96.9%
% growth at 10 µM [4]: 108%
percent cell growth at 10 µM [5]: 90.1%
activity at 10 µM [6]: 118%
% growth at 10 µM [7]: 97.3%
activity at 10 µM [8]: 117%
activity at 10 µM [9]: 108%
% growth at 10 µM [10]: 101%
% growth at 10 µM [11]: 98.8%
% cell growth at 10 µM [12]: 91%
activity at 10 µM [13]: 90.7%
% growth at 10 µM [14]: 89.6%
activity at 10 µM [15]: 106%
% growth at 10 µM [16]: 107%
percent cell growth at 10 µM [17]: 114%
activity at 10 µM [18]: 108%
% growth at 10 µM [19]: 119%
% growth at 10 µM [20]: 96%
% growth at 10 µM [21]: 99.2%
% growth at 10 µM [22]: 92.9%
% growth at 10 µM [23]: 96.7%
% growth at 10 µM [24]: 95%
% growth at 10 µM [25]: 103%
activity at 10 µM [26]: 99.4%
activity at 10 µM [27]: 105%
% growth at 10 µM [28]: 108%
% cell growth at 10 µM [29]: 95.8%
% growth at 10 µM [30]: 92.1%
% growth at 10 µM [31]: 97%
% growth at 10 µM [32]: 102%
% growth at 10 µM [33]: 115%
% growth at 10 µM [34]: 114%
activity at 10 µM [35]: 90.5%
activity at 10 µM [36]: 101%
activity at 10 µM [37]: 95.2%
% growth at 10 µM [38]: 96.3%
% growth at 10 µM [39]: 98.6%
percent cell growth at 10 µM [40]: 96.5%
% cell growth at 10 µM [41]: 101%
% cell growth at 10 µM [42]: 88.6%
% growth at 10 µM [43]: 104%
% growth at 10 µM [44]: 89%
activity at 10 µM [45]: 94.2%
% growth at 10 µM [46]: 103%
activity at 10 µM [47]: 101%
% growth of cells at 10 µM [48]: 105%
% growth at 10 µM [49]: 92.6%
percent cell growth at 10 µM [50]: 101%
activity at 10 µM [51]: 104%
% cell growth at 10 µM [52]: 96.7%
activity at 10 µM ([53]; Homo sapiens, 60 cell, 48 h, read-out: Mean % growth): 101%
activity on all 60 cancer cell lines tested (in words) ([53]; one dose): weak activity
activity at 10 µM [54]: 106%
percent cell growth at 10 µM [55]: 96.5%
% growth at 10 µM [56]: 103%
% cell growth at 10 µM [57]: 112%
